In patent US9365506B2, “Compounds and compositions as TLR2 agonists” (NOVARTIS AG, priority 2010, dated 2016):

Target: human TLR2 (Homo sapiens, UniProt O60603)
Assay: Reporter gene assay: HEK 293 cells stably transfected with human TLR2 and NF-kB-driven luciferase reporter
Conditions: for Emax: HEK293, 7 h, read-out: Hek-TLR2 (% Eff); for EC50: Hek-TLR2 μM (EC50), HEK 293 stably transfected with human TLR2 and pNifty-Luciferase, 7 hours incubation, concentration giving 50% of maximal signal

human TLR2, sequence (O60603 21-784): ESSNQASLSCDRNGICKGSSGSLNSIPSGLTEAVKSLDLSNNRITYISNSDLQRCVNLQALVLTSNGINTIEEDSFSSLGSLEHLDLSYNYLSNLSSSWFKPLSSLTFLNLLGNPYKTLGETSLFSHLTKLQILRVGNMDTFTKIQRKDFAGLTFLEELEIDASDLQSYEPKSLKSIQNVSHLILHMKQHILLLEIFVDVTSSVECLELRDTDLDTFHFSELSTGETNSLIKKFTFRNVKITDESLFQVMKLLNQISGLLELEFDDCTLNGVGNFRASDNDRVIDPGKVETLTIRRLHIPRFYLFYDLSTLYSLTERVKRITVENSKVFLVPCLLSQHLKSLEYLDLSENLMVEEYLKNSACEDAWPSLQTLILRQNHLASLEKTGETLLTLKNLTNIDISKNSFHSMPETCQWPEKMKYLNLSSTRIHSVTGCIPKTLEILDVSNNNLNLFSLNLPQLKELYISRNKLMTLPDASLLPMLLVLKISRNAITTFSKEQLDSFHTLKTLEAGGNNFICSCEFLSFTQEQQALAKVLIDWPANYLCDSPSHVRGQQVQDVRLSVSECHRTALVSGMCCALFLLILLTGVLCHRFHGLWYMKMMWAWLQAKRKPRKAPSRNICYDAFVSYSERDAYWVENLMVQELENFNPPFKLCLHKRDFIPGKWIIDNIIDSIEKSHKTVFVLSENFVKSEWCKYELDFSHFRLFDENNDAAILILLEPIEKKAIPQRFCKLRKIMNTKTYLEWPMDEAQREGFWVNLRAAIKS

Row | Compound | Emax [%] | EC50 [µM]
1 | CCCCCCCCCCCC(=O)OC[C@H](CSC[C@H](N)C(=O)NCCCCCN)OC(=O)CCCCCCCCCCC [Example 7, (R)-3-((R)-2-amino-3-(5-aminopentylamino)-3-oxopropylthio)propane-1,2-diyl didodecanoate] | 113 | 1.22
2 | CCCCCCCC(=O)OC[C@H](CSC[C@H](N)C(=O)NCCOCCOCCOCCP(=O)(O)O)OC(=O)CCCCCCC [Example 23, (14R,18R)-14-amino-18-(octanoyloxy)-13,21-dioxo-3,6,9,20-tetraoxa-16-thia-12-azaoctacosylphosphonic acid] | 73 | 3.04
3 | CCCCCCCCCCCC(=O)OC[C@H](CSC[C@H](N)C(=O)NCCCN1CCOCC1)OC(=O)CCCCCCCCCCC [Example 59, (R)-3-(((R)-2-amino-3-((3-morpholinopropyl)amino)-3-oxopropyl)thio)propane-1,2-diyl didodecanoate] | 121 | 0.71
4 | CCCCCCCCCCCCOC[C@H](CSC[C@H](N)C(=O)N[C@@H](C)COCCOCCOCCP(=O)(O)O)NC(=O)CCCCCCCCCCC [Example 28, ((11S,14R,18R)-14-amino-18-dodecanamido-11-methyl-13-oxo-3,6,9,20-tetraoxa-16-thia-12-azadotriacontyl)phosphonic acid] | 37 | 0.99
5 | CCCCCCCCCCNC(=O)OC[C@H](CSC[C@H](N)C(=O)NCCOCCOCCOCCC(=O)O)OC(=O)NCCCCCCCCCC [Example 37, (15R,19R)-15-amino-19-(decylcarbamoyloxy)-14,22-dioxo-4,7,10,21-tetraoxa-17-thia-13,23-diazatritriacontan-1-oic acid] | 7 | 6.21
6 | CCCCCCCCCCCC(=O)OC[C@H](CSC[C@H](N)C(=O)NC(CC)COC)OC(=O)CCCCCCCCCCC (stereo partly drawn) [Example 63, (2R)-3-(((2R)-2-amino-3-((1-methoxybutan-2-yl)amino)-3-oxopropyl)thio)propane-1,2-diyl didodecanoate] | 96 | 0.0718
7 | CCCCCCCCCCCC(=O)OC[C@H](CSC[C@H](N)C(=O)NCCc1ccc(Oc2ccccc2)cc1)OC(=O)CCCCCCCCCCC [Example 68, (R)-3-(((R)-2-amino-3-oxo-3-((4-phenoxyphenethyl)amino)propyl)thio)propane-1,2-diyl didodecanoate] | 77 | 4.08
8 | CCCCCCCCCCCC(=O)OC[C@H](CSC[C@H](N)C(=O)NC(C)CCC(C)C)OC(=O)CCCCCCCCCCC (stereo partly drawn) [Example 74, (2R)-3-(((2R)-2-amino-3-((5-methylhexan-2-yl)amino)-3-oxopropyl)thio)propane-1,2-diyl didodecanoate] | 105 | 0.19
9 | CCCCCCCCCCCC(=O)OC[C@H](CSC[C@H](N)C(=O)NCCCS(=O)(=O)O)OC(=O)CCCCCCCCCCC [Example 84, 3-((R)-2-amino-3-(((R)-2,3-bis(dodecanoyloxy)propyl)thio)propanamido)propane-1-sulfonic acid] | 72 | 5.56
10 | CCCCCCCCCCCC(=O)OC[C@H](CSC[C@H](N)C(=O)NC(C)CCCN(CC)CC)OC(=O)CCCCCCCCCCC (stereo partly drawn) [Example 69, (2R)-3-(((2R)-2-amino-3-((5-(diethylamino)pentan-2-yl)amino)-3-oxopropyl)thio)propane-1,2-diyl didodecanoate] | 118 | 0.257
11 | CCCCCCCCCCCCOC[C@H](CSC[C@H](N)C(=O)N[C@@H](CO)C(=O)NCCOCCOCCP(=O)(O)O)NC(=O)CCCCCCCCCCC [Example 81, ((11S,14R,18R)-14-amino-18-dodecanamido-11-(hydroxymethyl)-10,13-dioxo-3,6,20-trioxa-16-thia-9,12-diazadotriacontyl)phosphonic acid] | 30 | 1.97
